We go through 1 compound from article PMC5581131, “The novel sphingosine-1-phosphate receptors antagonist AD2900 affects lymphocyte activation and inhibits T-cell entry into the lymph nodes” (Oncotarget, 2017).

One experiment has as its target T1, S1P4 (Homo sapiens, UniProt O95977).
T1 construct: Tango fusion partner (protease site + GAL4-VP16 transcription factor); expressed in transfected cells; host or cells: Tango S1P4 (EDG6)-bla U-2 OS cells
T1 sequence (O95977 1-384): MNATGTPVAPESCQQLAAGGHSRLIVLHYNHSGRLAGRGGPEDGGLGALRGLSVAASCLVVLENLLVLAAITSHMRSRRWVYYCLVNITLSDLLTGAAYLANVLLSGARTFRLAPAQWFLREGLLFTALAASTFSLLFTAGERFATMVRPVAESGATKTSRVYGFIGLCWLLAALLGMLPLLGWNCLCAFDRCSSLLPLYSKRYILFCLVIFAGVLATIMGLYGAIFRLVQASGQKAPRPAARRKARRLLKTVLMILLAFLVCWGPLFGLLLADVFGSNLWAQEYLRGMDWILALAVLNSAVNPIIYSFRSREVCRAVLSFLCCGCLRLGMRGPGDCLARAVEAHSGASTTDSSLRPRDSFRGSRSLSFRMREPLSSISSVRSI
Nature of the experiment: S1P4 antagonist test, Tango S1P4 (EDG6)-bla U-2 OS cells. Format: cell-based. Conditions: S1P4 TANGO U-2 OS cell line. The procedure:
(§1) Since AD2900 is a sphingolipid analogue with properties that resemble those of S1P, we intended to examine its ability to interact with the S1P receptors. To delineate whether AD2900 can function as an agonistic or antagonistic compound to any of the S1P receptors, we used a high-throughput screening cell-based assay, employing cell lines stably transfected with human S1P receptors 1, 2, 3, 4, or 5 [37]. In this experiment, a compound with an IC50 or EC50 value ≤10 μM for a certain S1P receptor is considered active as an antagonist or an agonist, respectively. The results illustrate that AD2900 acts as an antagonist to all S1P receptors (Table 1, Supplementary Figure 3). […] No agonist activation was evident.
(§2) The S1P1 agonist test and S1P2, S1P3, S1P4, and S1P5 agonist and antagonist tests were conducted as previously described using S1P1 CRE-bla CHO cells, S1P2 CRE-bla CHO cells, S1P3 NFAT-bla CHO cells, Tango™ S1P4 (EDG6)-bla U-2 OS cells, and Tango™ S1P5 ([…])-bla U-2 OS cells. The S1P1 antagonist assay was carried out according to the manufacturer’s instructions using a Tango™ S1P1 (EDG1)-bla U-2 OS Cell-Based Assay (Invitrogen, NY, USA).

In a further experiment the target is S1P1 (Homo sapiens, UniProt P21453). Nature of the experiment: S1P1 antagonist assay, Tango S1P1 (EDG1)-bla U-2 OS cells. Format: cell-based. Set-up: Tango fusion partner (protease site + GAL4-VP16 transcription factor); host or cells: Tango S1P1 (EDG1)-bla U-2 OS cells. The conditions noted are these: S1P1 TANGO U-2 OS cell line. The procedure: as §1, §2
S1P1, sequence (P21453 whole entry, the tested form may be a part): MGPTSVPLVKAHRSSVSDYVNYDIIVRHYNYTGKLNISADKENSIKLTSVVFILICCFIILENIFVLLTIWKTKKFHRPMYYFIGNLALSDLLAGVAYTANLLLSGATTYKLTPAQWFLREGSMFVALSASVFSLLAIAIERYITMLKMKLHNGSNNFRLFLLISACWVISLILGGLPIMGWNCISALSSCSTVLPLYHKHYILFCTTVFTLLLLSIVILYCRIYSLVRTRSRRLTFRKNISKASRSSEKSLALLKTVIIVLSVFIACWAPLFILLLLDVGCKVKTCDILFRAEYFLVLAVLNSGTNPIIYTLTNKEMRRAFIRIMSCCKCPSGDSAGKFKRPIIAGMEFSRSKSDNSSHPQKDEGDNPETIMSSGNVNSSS
Another experiment relates to activated PBMCs. The experiment is described as follows: Apoptosis of activated PBMCs, AnnexinV-PI FACS after MLR. Format: cell-based, human. The conditions noted are these: 1-day pretreatment, 5 days of MLR. The procedure:
(§3) Figure 1 AD2900 inhibits human lymphocyte proliferation in allogeneic activation (A, B) The levels of proliferative response of human peripheral blood lymphocytes (PBMCs) after 1-day pretreatment with different concentrations of AD2900, AD2750, YZ138, YZ158, and YZ297 (A) or AD2900, FTY720, and SEW2871 (B) were tested by human allogeneic mixed lymphocyte reaction (MLR) assay, followed by a [3H] thymidine incorporation analysis. (C) Apoptosis of AD2900-treated activated PBMCs was tested by AnnexinV-propidium iodide (PI) FACS analysis following 1-day AD2900 pretreatment and MLR. All the samples were compared to the untreated PBMC control. (D) IFN-γ secretion from activated PBMCs was tested by ELISA following a 1-day AD2900 pretreatment in MLR. On the 5th day of hMLR, supernatants were collected and assayed for the level of IFN-γ. (E) Jurkat cell viability after a 1-day treatment with different concentrations of AD2900, FTY720, and SEW2871 was tested by XTT viability assay. […]
(§4) Human PBLs were collected from human whole blood collected from healthy donors. […] For the thymidine incorporation assay, after 4 days of co-culture, cells were pulsed with ^3H-thymidine at 1 μCi (0.037MBq) per well (PerkinElmer, MA, USA) for 16 additional hours and then harvested onto glass-fiber filters. ^3H-thymidine incorporation was measured using Top Count. […]

A further experiment deals with IFN-γ. The experiment is described as follows: IFN-γ secretion from activated PBMCs, ELISA. Format: cell-based, human. Conditions: 1-day pretreatment, 5th day of MLR. The protocol:
as §3, §4
(ELISA stands for enzyme-linked immunosorbent assay.)

In general, IC50 refers to the concentration needed to halve the response being measured. In the case of `CCCCCCCCCCCCCCCCNC(CO)(CO)CO` [AD2900], the 50% inhibitory concentration (IC50) against S1P4 was determined as 5.9 µM; at S1P1, 3.8 µM. The “concentrations at which apoptosis was induced on activated PBMCs” value in the experiment with activated PBMCs is given as “above 10 μM”. In addition, the “IFN-γ concentrations in the supernatant” value with IFN-γ is on record as “reduced level”.
